“And” between values parts separate entries of the source, which are not always exact repeats. Identical values can stand only once. Like-named read-outs stand apart in the source and are kept apart here. Marks after values point to notes of the source that are not given here. Where no end group is shown, it is not given here.
Columns and labels:
[1] = rat, in vivo; cited from earlier work
[2] = in vivo, cited from earlier work
[3] = system: experimental rat model of ulcerative colitis (DSS); assay: Growth performance of DSS colitis rats (body weight, intestinal and colonic length and weight); format: in vivo
Method: Animal studies were conducted in accordance with the guidelines of the Zhejiang Farm Animal Welfare Council of China and approved by the ethics committee of Zhejiang Academy of Agricultural Sciences. Thirty-five male Sprague–Dawley rats were allocated into five treatments: control, DSS, DSS + PEG–pGLP-2(L), DSS + PEG–pGLP-2(M) and DSS + PEG–pGLP-2(H). Each treatment was performed in seven replicates on one rat. The rats were housed in a plastic bottom, wire-lid cages, maintained on a 12 h: 12 h light–dark cycle and allowed to acclimatise to the animal facility for 3 days. Rats in control group received only water; other rats were fed with 5% (w/v) DSS through their drinking water for 6 days from the first day of experiment, followed by 2 days of water consumption. The rats from the DSS + PEG–pGLP-2(L), DSS + PEG–pGLP-2(M) and DSS + PEG–pGLP-2(H) groups were intraperitoneally administered with 12.5, 25 and 100 nmol/kg PEG–pGLP-2, respectively, in 0.3 mL of saline solution daily from day 1 to day 6 of the trial. The rats in the control and DSS groups were administered with the same volume of saline solution. During the experimental period, behaviour and body weight were monitored daily. On day 8, all rats were anesthetised and sacrificed to collect their intestinal sample.
Samples collection was prepared as previously described. The segment from the pylorus to the Trietz ligament and from the ileocecal valve to the rectum was considered the duodenum and colon, respectively; these segments were cut free from their mesentery and immediately placed on ice. The duodenum and colon were cleaned of luminal contents, weighed and measured with a balance and a ruler. The middle segments (1 cm) of duodenum and colon were fixed in 10% formalin for 48 h and embedded in paraffin using standard techniques for histology. One centimetre of the distal segment of colon was collected for RNA isolation, which was immediately placed in 1 mL of RNA locker.

[4] = system: colon of DSS colitis rats; assay: Colonic morphology and colonic damage score (histology); format: in vivo, rat; settings: for Colonic damage score (CDS) of colon / Colon morphological structures: DSS colitis rats; for Colonic damage score (CDS) of colon: compared with DSS group, Fig. 1f; for colonic damage score: extent / colonic damage score: inflammation: grade 0-3; for colonic damage score: extent / colonic damage score: inflammation / colonic damage score: percent involvement / colonic damage score: crypt demage: individual rats, raw data; for colonic damage score: percent involvement: grade (1) 1-25% to (4) 76-100%; for colonic damage score: crypt demage: scale 0-4
Method: Histology was prepared as previously described. The paraffin-embedded sections were cut at 4 μm thickness and stained with haematoxylin and eosin. Duodenum villus-plus-crypt height was imaged using an Olympus DP-71 digital camera, and quantification was performed using an image processing system. Approximately 12 longitudinally oriented villi were measured from each H&E-stained section to make n = 1. All measurements were performed in a blinded manner. Colonic damage score (CDS), was evaluated in a blinded manner in tissue sections based on a grade scale ranging from 0 to 3 to measure the amount and depth of inflammation. The amount of crypt damage or regeneration was measured in a scale of 0–4, as indicated in Dieleman et al.. These changes were also quantified in terms of the percentage involvement of the disease process: (1) 1–25%, (2) 26–50%, (3) 51–75% and (4) 76–100%. Each section was separately scored for each feature by establishing the product of the grade for that feature and the percentage involvement. The sum of the products of the four scores was the CDS for each rat.

Claudin-1 = assay: Real-time PCR expression in colon; format: in vivo, rat; settings: DSS colitis rats, compared with DSS group, RT-PCR
Method: (§1) Total RNA was isolated using RNAiso Plus kits following the manufacturers’ instructions. A 2 μL aliquot of the total RNA was used for first-strand cDNA synthesis using PrimeScript® RT-reagent Kit with gDNA Eraser. Real-time PCR was carried out with ABI plus one (Life Technologies, Carlsbad, CA, USA) using SYBR Premix Ex TaqTM. The primers used were in Table 1. RT-PCR analysis was performed with an ABI Step One Plus Real-Time PCR System (Applied Biosystems, Inc.) using SYBR® Premix Ex TaqTM. PCR reactions were performed in triplicate under the following conditions: 95 °C for 30 s; 40 cycles of 95 °C for 5 s and 60 °C for 30 s. Fluorescent data for quantification were collected at the end of each cycle. Melting curve analysis was performed at 55–95 °C to verify the single product generation at the end of the assay. Standard curves were generated based on the data obtained from the standards of the 2–2^−6 dilution series template. Standard curve analysis was performed by using Step One Software (v2.2, Applied Biosystems, Inc.). Data were normalised to GADPH using the 2^−△△Ct quantitation method.

IFN-γ = assay: Real-time PCR expression in colon; format: in vivo, rat; settings: DSS colitis rats; 25 nmol/kg i.p. daily d1-6 (M); compared with DSS group; RT-PCR
Method: as §1

IL-10 = assay: Real-time PCR expression in colon; format: in vivo, rat; settings: DSS colitis rats, compared with DSS group, RT-PCR
Method: as §1

IL-1 = assay: Real-time PCR expression in colon; format: in vivo, rat; settings: DSS colitis rats, compared with DSS group, RT-PCR
Method: as §1

IL-6 = assay: Real-time PCR expression in colon; format: in vivo, rat; settings: DSS colitis rats, among the five groups, RT-PCR
Method: as §1

IL-7 = assay: Real-time PCR expression in colon; format: in vivo, rat; settings: DSS colitis rats, compared with DSS group, RT-PCR
Method: as §1

Occludin = assay: Real-time PCR expression in colon; format: in vivo, rat; settings: DSS colitis rats, compared with DSS group, RT-PCR
Method: as §1

TNF-α = assay: Real-time PCR expression in colon; format: in vivo, rat; settings: DSS colitis rats, compared with DSS group, RT-PCR
Method: as §1

ZO-1 = assay: Real-time PCR expression in colon; format: in vivo, rat; settings: DSS colitis rats; 100 nmol/kg i.p. daily d1-6 (H); compared with DSS group; RT-PCR, 2^-ΔΔCt vs GADPH
Method: as §1

[5] = system: dipeptidyl peptidase-IV (DPP-IV); settings: in DPP-IV in vitro; cited from earlier work
[6] = in vivo; cited from earlier work
[7] = design: method as in PMID 19773525; settings: patient; cited from earlier work
[8] = 5% DSS colitis, male SD rats, 12.5 nmol/kg i.p. daily d1-6 (L), day 8, mean ± SD
[9] = 5% DSS colitis, male SD rats, 25 nmol/kg i.p. daily d1-6 (M), day 8, mean ± SD
[10] = 5% DSS colitis, male SD rats, 100 nmol/kg i.p. daily d1-6 (H), day 8, mean ± SD
[11] = DSS colitis rats, 12.5 nmol/kg i.p. daily d1-6 (L), individual rats, raw data
[12] = DSS colitis rats, 25 nmol/kg i.p. daily d1-6 (M), individual rats, raw data
[13] = DSS colitis rats, 100 nmol/kg i.p. daily d1-6 (H), individual rats, raw data
[14] = 12.5 nmol/kg i.p. daily d1-6 (L)
[15] = 100 nmol/kg i.p. daily d1-6 (H)

HGDGSFSDEMNTVLDNLATRDFINWLLHTKITDSL [p[Gly^2]GLP-2, Porcine [Gly^2] GLP-2]
half-life [1]: 0.817 h

PEG(2 k)-Lys-GLP-1: PEGylated glucagon-like peptide-1 of Lee et al.
half-life increase ([2]; iv): 16 fold
half-life increase ([2]; sc): 3.2 fold

polyethylene glycosylated porcine glucagon-like peptide-2 (HGDGSFSDEMNTVLDNLATRDFINWLLHTKITDSL; also: mono-PEGylated with mPEG5k-SPA, site not given here; UniProt P01274 146-180, looked up, variant A2G) [PEG–pGLP-2]
Body weight change [3, 8]: 21.45 ± 2.00^b %
Colonic length [3, 8]: 14.74 ± 1.90^a cm
Intestinal length [3, 8]: 94.50 ± 7.07 cm
Body weight change [3, 9]: 21.46 ± 4.65^b %
Colonic length [3, 9]: 14.48 cm
Intestinal length [3, 9]: 99.10 ± 8.03 cm
Body weight change [3, 10]: 20.63 ± 3.4^b %
Colonic length [3, 10]: 13.42 cm
Intestinal length [3, 10]: 99.56 ± 6.82 cm
Colonic weight [3, 11]: 3.68 g and 1.94 g and 1.55 g and 1.6 g and 3.59 g and 2.4 g
Intestinal length [3, 11]: 99.0 cm and 95.0 cm and 102.0 cm and 93.0 cm
Intestinal weight [3, 11]: 8.25 g and 6.51 g and 7.68 g and 5.4 g and 8.63 g and 9.24 g
final weight [3, 11]: 240 g and 217 g and 219 g and 157 g and 223 g
Colonic weight [3, 12]: 3.22 g and 2.19 g and 2.7 g and 2.5 g and 3.3 g and 3 g
Intestinal weight [3, 12]: 6 g and 6.93 g and 9 g and 8.4 g and 8.73 g and 7.5 g
final weight [3, 12]: 220 g and 180 g and 246 g and 182 g and 230 g and 212 g
Colonic length [3, 13]: 14.7 cm and 12.7 cm and 13.7 cm and 13.0 cm
Colonic weight [3, 13]: 2.55 g and 2.37 g and 1.85 g and 2.2 g and 2.94 g
Intestinal weight [3, 13]: 10 g and 7.62 g and 7.22 g and 8 g and 7.87 g and 9.26 g
final weight [3, 13]: 221 g and 218 g and 214 g and 233 g and 219 g and 242 g
Colonic damage score (CDS) of colon [4, 14]: significantly (p < 0.05) decreased
Colon morphological structures ([4]; 25 nmol/kg i.p. daily d1-6 (M), Fig. 1d): almost normal with no damage
Colonic damage score (CDS) of colon ([4]; 25 nmol/kg i.p. daily d1-6 (M)): significantly (p < 0.05) decreased
Colon morphological structures ([4]; 100 nmol/kg i.p. daily d1-6 (H), Fig. 1e): almost normal with no damage
Colonic damage score (CDS) of colon [4, 15]: significantly (p < 0.05) decreased
colonic damage score: extent [4, 14]: 0.00 and 1.00
colonic damage score: inflammation [4, 14]: 1.00 and 2.00
colonic damage score: extent ([4]; 25 nmol/kg i.p. daily d1-6 (M)): 0.00 and 1.00
colonic damage score: inflammation ([4]; 25 nmol/kg i.p. daily d1-6 (M)): 2.00 and 1.00
colonic damage score: extent [4, 15]: 0.00
colonic damage score: inflammation [4, 15]: 1.00 and 2.00
colonic damage score: percent involvement [4, 14]: 0.00 and 1.00
colonic damage score: percent involvement ([4]; 25 nmol/kg i.p. daily d1-6 (M)): 0.00 and 1.00
colonic damage score: percent involvement [4, 15]: 0.00 and 1.00
colonic damage score: crypt demage [4, 14]: 0.00 and 1.00
colonic damage score: crypt demage ([4]; 25 nmol/kg i.p. daily d1-6 (M)): 0.00 and 3.00 and 1.00
colonic damage score: crypt demage [4, 15]: 0.00 and 3.00
Expression of claudin-1 in colon (Claudin-1; 25 nmol/kg i.p. daily d1-6 (M)): significantly (p < 0.05) decreased
Expression of claudin-1 in colon (Claudin-1; [15]): significantly (p < 0.05) decreased
Expression of IFN-γ in colon (IFN-γ): significantly (p < 0.05) decreased
Expression of IL-10 in colon (IL-10; [14]): significantly (p < 0.05) decreased
Expression of IL-10 in colon (IL-10; 25 nmol/kg i.p. daily d1-6 (M)): significantly (p < 0.05) decreased
Expression of IL-1 in colon (IL-1; [14]): significantly (p < 0.05) decreased
Expression of IL-1 in colon (IL-1; 25 nmol/kg i.p. daily d1-6 (M)): significantly (p < 0.05) decreased
Expression of IL-1 in colon (IL-1; [15]): significantly (p < 0.05) decreased
Expression of IL-6 in colon (IL-6; [14]): No significant differences
Expression of IL-6 in colon (IL-6; 25 nmol/kg i.p. daily d1-6 (M)): No significant differences
Expression of IL-6 in colon (IL-6; [15]): No significant differences
Expression of IL-7 in colon (IL-7; [14]): significantly (p < 0.05) decreased
Expression of IL-7 in colon (IL-7; 25 nmol/kg i.p. daily d1-6 (M)): significantly (p < 0.05) decreased
Expression of IL-7 in colon (IL-7; [15]): significantly (p < 0.05) decreased
Expression of occludin in colon (Occludin; 25 nmol/kg i.p. daily d1-6 (M)): significantly (p < 0.05) increased
Expression of occludin in colon (Occludin; [15]): significantly (p < 0.05) increased
Expression of TNF-α in colon (TNF-α; [14]): significantly (p < 0.05) decreased
Expression of TNF-α in colon (TNF-α; 25 nmol/kg i.p. daily d1-6 (M)): significantly (p < 0.05) decreased
Expression of TNF-α in colon (TNF-α; [15]): significantly (p < 0.05) decreased
Expression of ZO-1 in colon (ZO-1): significantly (p < 0.05) increased
half-life (t1/2) longer than that of pGLP-2 [5]: 16 fold
half-life [1]: 3.37 h
t1/2 [1]: 3.38 h

porcine glucagon-like peptide-2 (HADGSFSDEMNTVLDNLATRDFINWLLHTKITDSL; Glucagon-like peptide 2; UniProt P01274 146-180, looked up) [pGLP-2]
half-life of intact pGLP-2 [6]: 8.4 min

teduglutide
t1/2 [7]: 2.99 h
